Assay results: patent US20250195521A1 (Revolution Medicines, Inc., priority 2020, published 2025)
pEC50, pIC50: −log10 of the molar value. Like-named read-outs stand apart in the source and are kept apart here.

Legend:
[1] = tested on: Capan-1 cells (K-Ras G12V); experiment: CellTiter-Glo cell viability, Capan-1; type: cell-based, human; conditions: K-Ras G12V, 5-day treatment, read-out: Capan-1 Cell Viability IC50
In short: (§1)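 Compounds were dispensed directly onto seeded cells and incubated until day 5, then plates were equilibrated at room temperature for about 30 min before CellTiter-Glo luminescence readout. Signals were normalized as (sample/average DMSO)×100 and fitted with a four-parameter logistic model.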

[2] = tested on: K-Ras G12C (NCI-H358 cells); experiment: Potency assay: pERK in NCI-H358 cells; type: cell-based, human; conditions: NCI-H358 cells, 4 hours, read-out: pERK EC50 (H358 KRAS G12C)
In short: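 Cells plated the day before were exposed for 4 h at 37° C, 5% CO2 to a 10-point, 3-fold DMSO dilution series (10 mM top stock), in duplicate. Phospho-ERK was read by AlphaLISA SureFire Ultra or by In-Cell Western with DRAQ5 DNA stain, and IC50 came from a 4-parameter sigmoidal fit.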

KRAS Q61H = KRAS Q61H (Homo sapiens (Human), UniProt P01116+P62937, Q61H); experiment: Ras-Raf disruption/FRET/MOA assay (BRAF RBD, Cyclophilin A); type: biochemical
In short: (§2)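 TR-FRET read after 1.5 h with 10 nM anti-His Eu-W1024 and 50 nM anti-GST APC, following 3 h at 25 °C of GMPPNP-loaded His6-Ras (12.5 nM), GST-BRAF RBD (50 nM) and Cyclophilin A (25 μM) with compound from 30 μM final, 10 points, 3-fold. IC50 reported; pH 7.3 HEPES, 100 mM NaCl.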

KRAS G13C = KRAS G13C (Homo sapiens (Human), UniProt P01116+P62937, G13C); experiment: as above; type: biochemical; conditions: read-out: KRAS G13C FRET IC50
In short: as §2

KRAS G12D = KRAS G12D (Homo sapiens (Human), UniProt P01116+P62937, G12D); experiment: as above; type: biochemical; conditions: read-out: KRAS G12D FRET IC50
In short: as §2

NRAS WT = NRAS WT (Homo sapiens (Human), UniProt P01111+P62937); experiment: as above; type: biochemical
In short: (§3)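 First, 25 μM Cyclophilin A, 12.5 nM His6-Ras-GMPPNP and 50 nM GST-BRAF RBD are mixed with diluted compound at pH 7.3. Next, 3 h at 25° C. Then 10 nM anti-His Eu-W1024 plus 50 nM anti-GST allophycocyanin for 1.5 h before TR-FRET reading.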

NRAS Q61K = NRAS Q61K (Homo sapiens (Human), UniProt P01111+P62937, Q61K); experiment: as above; type: biochemical
In short: as §3

NRAS Q61R = NRAS Q61R (Homo sapiens (Human), UniProt P01111+P62937, Q61R); experiment: as above; type: biochemical
In short: as §3

[3] = tested on: NCI-H358 cells (K-Ras G12C); experiment: CellTiter-Glo cell viability, NCI-H358; type: cell-based, human; conditions: K-Ras G12C, 5-day treatment, read-out: H358 Cell Viability IC50
In short: as §1

KRAS G13D = KRAS G13D (Homo sapiens (Human), UniProt P01116+P62937, G13D); experiment: Ras-Raf disruption/FRET/MOA assay (BRAF RBD, Cyclophilin A); type: biochemical; conditions: read-out: KRAS G13D FRET data IC50
In short: as §2

NRAS G12C = NRAS G12C (Homo sapiens (Human), UniProt P01111+P62937, G12C); experiment: as above; type: biochemical; conditions: read-out: NRAS G12C FRET data IC50
In short: as §3

KRAS G12S = KRAS G12S (Homo sapiens (Human), UniProt P01116+P62937, G12S); experiment: as above; type: biochemical; conditions: read-out: KRAS G12S FRET IC50
In short: as §2

KRAS G12V = KRAS G12V (Homo sapiens (Human), UniProt P01116+P62937, G12V); experiment: as above; type: biochemical; conditions: read-out: KRAS G12V FRET IC50
In short: as §2

KRAS G12C = KRAS G12C (Homo sapiens (Human), UniProt P01116+P62937, G12C); experiment: as above; type: biochemical; conditions: read-out: KRAS G12C FRET IC50
In short: as §2

KRAS WT = KRAS WT (Homo sapiens (Human), UniProt P01116+P62937); experiment: as above; type: biochemical; conditions: read-out: KRAS WT FRET data IC50
In short: as §2

Sequence of KRAS G12D (P01116 other isoform, or with tags, fused parts or gaps G12D): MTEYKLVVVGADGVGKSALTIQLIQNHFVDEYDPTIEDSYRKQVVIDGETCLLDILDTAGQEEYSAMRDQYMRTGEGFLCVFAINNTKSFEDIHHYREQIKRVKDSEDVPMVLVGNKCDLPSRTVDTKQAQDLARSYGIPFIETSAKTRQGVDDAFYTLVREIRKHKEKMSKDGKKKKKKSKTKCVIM
Sequence of KRAS G12D (P62937 whole entry): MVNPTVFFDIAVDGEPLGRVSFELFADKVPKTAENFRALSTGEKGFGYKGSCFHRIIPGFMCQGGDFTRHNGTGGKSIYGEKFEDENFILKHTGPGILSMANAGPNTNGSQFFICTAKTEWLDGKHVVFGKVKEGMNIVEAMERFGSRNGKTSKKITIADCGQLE
Sequence of KRAS WT (P01116 other isoform, or with tags, fused parts or gaps): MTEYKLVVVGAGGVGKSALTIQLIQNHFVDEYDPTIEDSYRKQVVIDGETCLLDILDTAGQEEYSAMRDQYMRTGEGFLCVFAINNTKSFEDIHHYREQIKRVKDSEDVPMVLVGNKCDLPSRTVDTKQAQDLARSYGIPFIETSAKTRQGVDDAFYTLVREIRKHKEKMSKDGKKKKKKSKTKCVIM
Sequence of KRAS WT (P62937 whole entry): as the sequence (P62937 whole entry) above
Sequence of KRAS G13C (P01116 other isoform, or with tags, fused parts or gaps G13C): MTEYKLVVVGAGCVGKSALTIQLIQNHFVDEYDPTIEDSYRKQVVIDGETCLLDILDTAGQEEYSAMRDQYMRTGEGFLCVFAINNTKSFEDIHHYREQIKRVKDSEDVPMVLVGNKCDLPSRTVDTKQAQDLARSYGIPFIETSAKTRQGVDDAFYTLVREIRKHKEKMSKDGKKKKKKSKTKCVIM
Sequence of KRAS G13C (P62937 whole entry): as the sequence (P62937 whole entry) above
Sequence of KRAS G12V (P01116 other isoform, or with tags, fused parts or gaps G12V): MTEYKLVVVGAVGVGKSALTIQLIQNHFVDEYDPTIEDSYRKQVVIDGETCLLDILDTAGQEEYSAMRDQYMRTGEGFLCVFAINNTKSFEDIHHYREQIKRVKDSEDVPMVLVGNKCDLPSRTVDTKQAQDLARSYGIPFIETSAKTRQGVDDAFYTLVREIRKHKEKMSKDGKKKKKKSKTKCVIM
Sequence of KRAS G12V (P62937 whole entry): as the sequence (P62937 whole entry) above
Sequence of NRAS WT (P01111 whole entry): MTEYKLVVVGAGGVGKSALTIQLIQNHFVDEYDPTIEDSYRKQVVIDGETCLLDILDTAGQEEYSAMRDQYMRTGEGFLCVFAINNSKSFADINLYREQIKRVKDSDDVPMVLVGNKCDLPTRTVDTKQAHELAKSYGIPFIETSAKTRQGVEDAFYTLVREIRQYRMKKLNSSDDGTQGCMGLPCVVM
Sequence of NRAS WT (P62937 whole entry): as the sequence (P62937 whole entry) above
Sequence of KRAS G13D (P01116 other isoform, or with tags, fused parts or gaps G13D): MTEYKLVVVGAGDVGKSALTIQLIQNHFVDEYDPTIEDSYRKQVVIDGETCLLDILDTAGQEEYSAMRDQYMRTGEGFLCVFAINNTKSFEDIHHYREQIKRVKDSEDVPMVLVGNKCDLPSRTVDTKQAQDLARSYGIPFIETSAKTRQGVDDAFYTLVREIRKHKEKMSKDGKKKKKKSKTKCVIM
Sequence of KRAS G13D (P62937 whole entry): as the sequence (P62937 whole entry) above
Sequence of NRAS G12C (P01111 whole entry G12C): as the sequence (P01111 whole entry) above, with G12C counted along it
Sequence of NRAS G12C (P62937 whole entry): as the sequence (P62937 whole entry) above
Sequence of KRAS Q61H (P01116 other isoform, or with tags, fused parts or gaps Q61H): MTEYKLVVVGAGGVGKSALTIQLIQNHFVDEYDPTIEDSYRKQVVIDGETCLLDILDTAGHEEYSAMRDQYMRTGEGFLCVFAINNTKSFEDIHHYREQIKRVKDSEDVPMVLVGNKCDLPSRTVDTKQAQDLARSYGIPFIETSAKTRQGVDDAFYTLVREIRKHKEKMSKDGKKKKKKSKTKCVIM
Sequence of KRAS Q61H (P62937 whole entry): as the sequence (P62937 whole entry) above
Sequence of KRAS G12S (P01116 other isoform, or with tags, fused parts or gaps G12S): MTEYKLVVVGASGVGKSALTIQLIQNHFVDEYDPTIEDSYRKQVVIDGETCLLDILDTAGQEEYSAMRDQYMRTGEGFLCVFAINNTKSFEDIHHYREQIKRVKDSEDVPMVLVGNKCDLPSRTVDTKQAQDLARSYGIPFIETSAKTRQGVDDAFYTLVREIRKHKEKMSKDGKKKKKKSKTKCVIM
Sequence of KRAS G12S (P62937 whole entry): as the sequence (P62937 whole entry) above
Sequence of KRAS G12C (P01116-2 other isoform, or with tags, fused parts or gaps G12C): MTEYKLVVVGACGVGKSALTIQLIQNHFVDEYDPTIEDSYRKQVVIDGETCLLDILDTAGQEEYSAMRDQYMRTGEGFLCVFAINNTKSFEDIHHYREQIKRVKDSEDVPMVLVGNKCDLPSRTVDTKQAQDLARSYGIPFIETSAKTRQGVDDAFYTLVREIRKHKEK
Sequence of KRAS G12C (P62937 whole entry): as the sequence (P62937 whole entry) above
Sequence of NRAS Q61K (P01111 whole entry Q61K): as the sequence (P01111 whole entry) above, with Q61K counted along it
Sequence of NRAS Q61K (P62937 whole entry): as the sequence (P62937 whole entry) above
Sequence of NRAS Q61R (P01111 whole entry Q61R): as the sequence (P01111 whole entry) above, with Q61R counted along it
Sequence of NRAS Q61R (P62937 whole entry): as the sequence (P62937 whole entry) above

Structure (SMILES)	pIC50 [1]	pEC50 [2]	pIC50 (KRAS Q61H)	pIC50 (KRAS G13C)	pIC50 (KRAS G12D)	pIC50 (NRAS WT)	pIC50 (NRAS Q61K)	pIC50 (NRAS Q61R)	pIC50 [3]	pIC50 ([1]; Homo sapiens, CAPAN-1, 120 h)	pEC50 ([2]; Homo sapiens)	pIC50 (KRAS G13D)	pIC50 (NRAS G12C)	pIC50 (KRAS G12S)	pIC50 (KRAS G12V)	pIC50 (KRAS G12C)	pIC50 (KRAS WT)	pIC50 ([3]; Homo sapiens, NCI-H358, 120 h)
CCn1c(-c2cccnc2[C@H](C)OC)c2c3cc(ccc31)-c1cc(O)cc(c1)C[C@H](NC(=O)[C@H](C(C)C)N(C)C(=O)N1CC(N(C)C)C1)C(=O)N1CCC[C@H](N1)C(=O)OCC(C)(C)C2 [Compound A170]	7.00 to 8.00	> 5.30	6.00 to 7.00	6.00 to 7.00	5.00 to 6.00	6.00 to 7.00	7.00 to 8.00	6.00 to 7.00	7.00 to 8.00									
CCn1c(-c2cccnc2[C@H](C)OC)c2c3cc(ccc31)-c1cc(O)cc(c1)C[C@H](NC(=O)[C@@H]1CCCCCN1C(C)=O)C(=O)N1CCC[C@H](N1)C(=O)OCC(C)(C)C2 [Compound A176]			6.00 to 7.00	6.00 to 7.00	5.00 to 6.00	6.00 to 7.00	6.00 to 7.00	5.00 to 6.00		5.00 to 6.00	> 5.30	6.00 to 7.00	6.00 to 7.00	5.00 to 6.00	6.00 to 7.00	6.00 to 7.00	6.00 to 7.00	
CCn1c(-c2cccnc2[C@H](C)OC)c2c3cc(ccc31)-c1csc(n1)C[C@H](NC(=O)N1CCN(C)CC1)C(=O)N1CCC[C@H](N1)C(=O)OCC(C)(C)C2 [Compound A265, N-((6^3S,4S,Z)-1^1-ethyl-1^2-(2-((S)-1-methoxyethyl)pyridin-3-yl)-10, 10-dimethyl-5,7-dioxo-6^1,6^2,6^3,6^4,6^5,6^6-hexahydro-1^1H-8-oxa-2 (4,2)-thiazola-1 (5,3)-indola-6 (1,3)-pyridazinacycloundecaphane-4-yl)-4-methylpiperazine-1-carboxamide]			6.00 to 7.00	6.00 to 7.00	6.00 to 7.00	6.00 to 7.00	6.00 to 7.00	6.00 to 7.00		5.00 to 6.00		6.00 to 7.00	7.00 to 8.00	6.00 to 7.00	7.00 to 8.00	7.00 to 8.00	6.00 to 7.00	
CCn1c(-c2cccnc2[C@H](C)OC)c2c3cc(ccc31)-c1csc(n1)C[C@H](NC(=O)N1CCOCC1)C(=O)N1CCC[C@H](N1)C(=O)OCC(C)(C)C2 [Compound A270]			6.00 to 7.00	6.00 to 7.00	6.00 to 7.00	6.00 to 7.00	6.00 to 7.00	6.00 to 7.00		5.00 to 6.00		6.00 to 7.00	6.00 to 7.00	6.00 to 7.00	6.00 to 7.00	6.00 to 7.00	6.00 to 7.00	6.00 to 7.00
CCn1c(-c2cccnc2[C@H](C)OC)c2c3cc(ccc31)-c1csc(n1)C[C@H](NC(=O)[C@H](C(C)C)N(C)C(=O)N1[C@H](C)CN(C)C[C@@H]1C)C(=O)N1CCC[C@H](N1)C(=O)OCC(C)(C)C2 [Compound A272]			6.00 to 7.00	5.00 to 6.00	5.00 to 6.00	5.00 to 6.00	5.00 to 6.00	5.00 to 6.00		5.00 to 6.00		5.00 to 6.00	5.00 to 6.00	5.00 to 6.00	< 5.00	5.00 to 6.00	5.00 to 6.00	
CCn1c(-c2cccnc2[C@H](C)OC)c2c3cc(ccc31)-c1cc(c3cn[nH]c3c1)C[C@H](NC(=O)[C@H](C(C)C)N(C)C(C)=O)C(=O)N1CCC[C@H](N1)C(=O)OCC(C)(C)C2 [Compound A388]			6.00 to 7.00	6.00 to 7.00	< 5.00	5.00 to 6.00	5.00 to 6.00	5.00 to 6.00		5.00 to 6.00	> 5.30	5.00 to 6.00	5.00 to 6.00	5.00 to 6.00	5.00 to 6.00	5.00 to 6.00	5.00 to 6.00	
CCn1c(-c2cccnc2[C@H](C)OC)c2c3cc(ccc31)-c1csc(n1)C[C@H](NC(=O)[C@H](C(C)C)N(C)C(=O)N1CC[C@@]13CCCNC3)C(=O)N1CCC[C@H](N1)C(=O)OCC(C)(C)C2 [Compound A435]			6.00 to 7.00	6.00 to 7.00	6.00 to 7.00	6.00 to 7.00	5.00 to 6.00	5.00 to 6.00		5.00 to 6.00	> 5.30	6.00 to 7.00	6.00 to 7.00	6.00 to 7.00	5.00 to 6.00	6.00 to 7.00	6.00 to 7.00	
CCn1c(-c2cccnc2[C@H](C)OC)c2c3cc(ccc31)-c1csc(n1)C[C@H](NC(=O)[C@H](C(C)C)N(C)C(=O)N1CC3(CCCN(C)C3=O)C1)C(=O)N1CCC[C@H](N1)C(=O)OCC(C)(C)C2 [Compound A453]			6.00 to 7.00	5.00 to 6.00	< 5.00	5.00 to 6.00	6.00 to 7.00	6.00 to 7.00		5.00 to 6.00			6.00 to 7.00	5.00 to 6.00	5.00 to 6.00	6.00 to 7.00	5.00 to 6.00	5.00 to 6.00
CCn1c(-c2cccnc2[C@H](C)OC)c2c3cc(ccc31)-c1csc(n1)C[C@H](NC(=O)[C@H](C(C)C)N(C)C(=O)N1CC[C@@H]3CN(C)C[C@@H]31)C(=O)N1CCC[C@H](N1)C(=O)OCC(C)(C)C2 [Compound A470]			6.00 to 7.00	6.00 to 7.00	5.00 to 6.00	5.00 to 6.00	5.00 to 6.00	5.00 to 6.00		6.00 to 7.00	> 5.30	5.00 to 6.00	5.00 to 6.00	5.00 to 6.00	5.00 to 6.00	5.00 to 6.00	5.00 to 6.00	
CCn1c(-c2cccnc2[C@H](C)OC)c2c3cc(ccc31)-c1csc(n1)C[C@H](NC(=O)[C@H](C(C)C)N(C)C(=O)N1C[C@@H]3[C@@H](C1)OCCN3C)C(=O)N1CCC[C@H](N1)C(=O)OCC(C)(C)C2 [Compound A472]			6.00 to 7.00	6.00 to 7.00	5.00 to 6.00	6.00 to 7.00	6.00 to 7.00	6.00 to 7.00		7.00 to 8.00		5.00 to 6.00	6.00 to 7.00	6.00 to 7.00	6.00 to 7.00	6.00 to 7.00	6.00 to 7.00	
CCn1c(-c2cccnc2[C@H](C)OC)c2c3cc(ccc31)-c1csc(n1)C[C@H](NC(=O)[C@H](C(C)C)N(C)C(=O)N1CCOCC13COC3)C(=O)N1CCC[C@H](N1)C(=O)OCC(C)(C)C2 [Compound A474]			7.00 to 8.00	6.00 to 7.00	5.00 to 6.00	6.00 to 7.00	6.00 to 7.00	6.00 to 7.00		7.00 to 8.00	> 5.30	5.00 to 6.00	6.00 to 7.00	6.00 to 7.00	6.00 to 7.00	6.00 to 7.00	6.00 to 7.00	
CCn1c(-c2cc(N3CCN(C)CC3)cnc2[C@H](C)OC)c2c3cc(ccc31)-c1csc(n1)C[C@H](NC(=O)[C@H](C(C)C)N(C)C(=O)[C@@H]1OCC[C@@H]1c1cccnc1)C(=O)N1CCC[C@H](N1)C(=O)OCC(C)(C)C2 [Compound A490]			6.00 to 7.00	6.00 to 7.00	5.00 to 6.00	6.00 to 7.00	6.00 to 7.00	6.00 to 7.00		7.00 to 8.00	> 5.30	5.00 to 6.00	6.00 to 7.00	6.00 to 7.00	6.00 to 7.00	6.00 to 7.00	6.00 to 7.00	
